Experimental data from PubChem BioAssay (NCI).
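Cells were grown in 96-well plates and exposed to each compound for 48 hours at five concentrations; endpoints were interpolated linearly between bracketing concentrations, or set to the highest concentration if not reached. The concentration for 50% growth inhibition is given as GI50. The concentration for full growth arrest is given as TGI.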

How the values were obtained:
Assay in all cases: NCI tumour cell line growth inhibition, 48 h
[1] = system: SNB-75 CNS
[2] = system: T-47D breast
[3] = system: 786-0 renal
[4] = system: KM12 colon
[5] = system: MOLT-4 leukemia
[6] = system: OVCAR-5 ovarian
[7] = system: K-562 leukemia
[8] = system: HCC-2998 colon
[9] = system: SNB-19 CNS
[10] = system: CAKI-1 renal

`O=C(Nn1c(-c2ccccc2)nc2ccccc2c1=O)c1ccccc1O` was tested, and the TGI [1] was > 100 µM, the TGI [2] was > 100 µM and the TGI [3] was > 100 µM. For the same compound, the TGI [4] was > 100 µM, the TGI [5] was > 100 µM and the TGI [6] was > 100 µM. The TGI [7] was > 100 µM, the TGI [8] was > 100 µM and the TGI [9] was > 100 µM.
In the case of `COc1cc2cc(C(=O)N3CC(COS(C)(=O)=O)c4ccc(O)cc43)[nH]c2c(OC)c1OC` (stereo not given), the TGI [1] is reported as 0.00149 µM, the TGI [2] is reported as 0.0416 µM and the TGI [3] is reported as 0.0106 µM. For the same compound, the TGI [4] was 0.0033 µM, the GI50 [10] was < 0.0001 µM and the TGI [10] was < 0.0001 µM. For the same compound, the TGI [5] was 0.0924 µM, the TGI [6] was 0.0428 µM and the TGI [8] was < 0.0001 µM. For the same compound, the TGI [9] was 0.012 µM.
In the case of `O=C1c2c(O)cccc2-c2nn(CCNCCO)c3ccc(NCCNCCO)c1c23`, the TGI [1] is reported as 1.14 µM, the TGI [2] is reported as 4.61 µM and the TGI [3] is reported as 0.895 µM. For the same compound, the TGI [4] was 7.73 µM, the TGI [10] was 1.81 µM and the TGI [5] was 0.086 µM. It also gave a TGI [6] of 2.85 µM, a TGI [8] of 1 µM and a TGI [9] of 0.405 µM.
In the case of `CC(C)(C)n1c(=O)[nH]c(=O)n1C(C)(C)C`, the TGI [1] is reported as > 100 µM, the TGI [3] is reported as > 100 µM and the TGI [4] is reported as > 100 µM. The TGI [10] was > 100 µM, the TGI [5] was > 100 µM and the TGI [6] was > 100 µM. The TGI [7] was > 100 µM, the TGI [8] was > 100 µM and the TGI [9] was > 100 µM.
With `COc1cc(C2C(Cl)C(=O)N2c2c(C)n(C)n(-c3ccccc3)c2=O)ccc1O` (stereo not given) the TGI [2] was > 100 µM, the TGI [3] was 31.6 µM and the TGI [4] was 44.6 µM. The TGI [10] was > 100 µM, the TGI [5] was 67 µM and the TGI [6] was 42.7 µM. For the same compound, the TGI [7] was > 100 µM.
With `O=C1OC[C@H]2[C@@H]1[C@H]1O[C@@H]2C2=C(CCC2)C1=O` the TGI [1] was > 100 µM, the TGI [2] was > 100 µM and the TGI [3] was > 100 µM. For the same compound, the TGI [4] was > 100 µM, the TGI [6] was > 100 µM and the TGI [7] was > 100 µM. For the same compound, the TGI [8] was > 100 µM and the TGI [9] was > 100 µM.
With `Cc1ccccc1-c1nc2c(C(=O)NCCN(C)C)cccc2[nH]1` the TGI [1] was > 100 µM, the TGI [4] was > 100 µM and the TGI [10] was > 100 µM. The TGI [5] was 75.6 µM, the TGI [6] was > 100 µM and the TGI [7] was > 61.1 µM. The TGI [8] was > 100 µM and the TGI [9] was > 100 µM.
Work on `O=C(CCN1CCN2c3ccccc3CCC2C1)c1ccc(F)cc1` (stereo not given) yielded a TGI [1] of 44.8 µM, a TGI [2] of 45.9 µM and a TGI [3] of 43.6 µM. For the same compound, the TGI [4] was > 100 µM, the TGI [10] was 44.4 µM and the TGI [5] was > 100 µM. For the same compound, the TGI [6] was 62.2 µM, the TGI [7] was > 100 µM and the TGI [9] was 47.5 µM.
In the case of `CC(C)/C(Cl)=N\OC(NC(=O)P(=O)(c1ccccc1)c1ccccc1)(C(F)(F)F)C(F)(F)F`, the TGI [2] is reported as > 100 µM, the TGI [3] is reported as 22.8 µM and the TGI [4] is reported as 23.1 µM. It also gave a TGI [10] of 46.3 µM, a TGI [5] of 39.6 µM and a TGI [6] of 48.3 µM. It also gave a TGI [7] of 23.8 µM, a TGI [8] of 33.4 µM and a TGI [9] of 35.3 µM.
With `O=c1[nH]n(Cc2ccccc2)c2ccc([N+](=O)[O-])cc12` the TGI [3] was > 100 µM, the TGI [4] was > 100 µM and the TGI [10] was > 100 µM. For the same compound, the TGI [5] was > 100 µM, the TGI [6] was > 100 µM and the TGI [7] was > 100 µM. The TGI [8] was > 100 µM and the TGI [9] was > 100 µM.
For `C/C(=N\NC(=S)N(C)C)c1cccnn1`, the TGI [1] was > 100 µM, the TGI [2] was > 100 µM and the TGI [3] was > 100 µM. The TGI [4] was > 100 µM, the TGI [5] was 3.08 µM and the TGI [6] was > 57.3 µM. For the same compound, the TGI [7] was > 100 µM, the TGI [8] was > 100 µM and the TGI [9] was > 100 µM.
